The text below walks through data of EP4692079A1, “CYP11A1 INHIBITOR AND USE THEREOF” (priority 2023, dated 2024).

SMILES strings stand for the structures.

A word on the IC50: it is the midpoint of a concentration-inhibition curve.

The subject of the experiment is testosterone level in NCI-H295R cells. Nature of the experiment: cells. It counts as cell-based. The settings on record: for IC50 / inhibition at 0.1 µM / inhibition at 1 µM: Homo sapiens, NCI-H295R, 72 h; for IC50: read-out: Testosterone level in H295R (Elisa) IC50 nM; for inhibition at 0.1 µM: read-out: Testosterone level in H295R (Elisa) inh.% 100 nM, 100 nM compound, NCI-H295R cells, three days incubation; for inhibition at 1 µM: read-out: Testosterone level in H295R (Elisa) inh.% 1000 nM, 1000 nM compound, NCI-H295R cells, three days incubation. How it is done: The purpose of the experimental study was intended to detect the testosterone level in the NCI-H295R cells by adopting the Enzyme linked immunosorbent assay (ELISA), so as to evaluate the inhibitory effects of the compounds on the testosterone level in the NCI-H295R cells.
The H295R cells were purchased from ATCC, the cell complete medium contained DMEM: F12+ 10% FBS +0.00625 mg/ml insulin +0.00625 mg/ml transferrin+6.25 ng/ml selenium +1.25 mg/ml BSA+0.00535 mg/ml linoleic acid, and the cells were cultured in a 37°C, 5% CO2 incubator. The cells in the exponential growth phase were collected, and cultured in a cytokine-free medium (phenol red 1640-free +1% PS+10% css FBS+1.25 mg/ml BSA +0.00625 mg/ml insulin + 0.00625 mg/ml transferrin+6.25 ng/ml selenium+0.00535 mg/ml linoleic acid) for three days. The cells in the exponential growth phase were collected on the third day. The cell suspension was adjusted with a cytokine-free medium to a corresponding concentration and plated at 60000 cells/well, with the volume being 90 µL/well. Subsequently, 10 µL of the compounds at different concentrations was added and the plate was incubated in a CO2 incubator for three days. After the incubation was completed, according to the operation instructions for testosterone Elisa kit (Beyotime, PT872), 50 µL of the cell culture supernatant was collected from each well and centrifuged at 500 g for 5 min at room temperature and then the resulting supernatant was collected. The samples were added to the corresponding wells at 25 µl/well, and then formulated horseradish peroxidase labelled testosterone was added at 75 µl/well. The mixture was fully mixed for 10 seconds. The reaction wells were sealed with a plate-sealing film (white) and the mixture was incubated at room temperature in the dark for 120 min. The plate was washed three times with a volume of 300 µl per well, and then placed onto thick absorbent paper and dried. Chromogenic reagent TMB solution was added at 100 µl/well. The reaction wells were sealed with a plate-sealing film (white) and the mixture was incubated at room temperature in the dark for 15-20 min. Subsequently, a termination solution was added at 50 µl/well, and after the mixture was fully mixed, the absorbance value OD450 was immediately measured. The absorbance readings were processed using Graphpad Prim 8.0 software and S-shaped concentration curves were plotted and the IC50 values were calculated using a four-parameter non-linear regression model.

Consider `O=C(OC1CC1)N1CCC(COc2coc(CN3Cc4ccc(C(F)(F)F)cc4C3)cc2=O)CC1` [Compound 32], for which the half-maximal inhibitory concentration (IC50) came to 117 nM, the inhibition at 0.1 µM is 76.1% and the inhibition at 1 µM was 64.3%.
For `CS(=O)(=O)N1CC(OC(=O)N2CC3C(COc4coc(CN5Cc6ccc(C(F)(F)F)cc6C5)cc4=O)C3C2)C1` (stereo not drawn) [Compound 77], the inhibition at 0.1 µM was determined as 71% and the inhibition at 1 µM was found to be 84%.
For `CS(=O)(=O)N1CC(OC(=O)N2CCC(COc3coc(CN4Cc5ccc(OC6CC6)cc5C4)cc3=O)CC2)C1` [Compound 25] the same measures were 56% and 77%.
As for `CS(=O)(=O)N1CCC2(CC1)CC2C(=O)N1CCC(COc2coc(CN3Cc4ccc(C(F)(F)F)cc4C3)cc2=O)CC1` (single isomer, unassigned) [Compound 70], the “Testosterone level in H295R (Elisa) inh.% 100 nM” value (100 nM compound, NCI-H295R cells, three days incubation) was determined as 60%. Besides, the “Testosterone level in H295R (Elisa) inh.% 1000 nM” value (1000 nM compound, NCI-H295R cells, three days incubation) worked out at 83%.
As to `CC(OC(=O)N1CCC(COc2coc(CN3Cc4ccc(C(F)(F)F)cc4C3)cc2=O)CC1)C(F)(F)F` (single isomer, unassigned) [Compound 56], the inhibition at 0.1 µM is 53.6% and the inhibition at 1 µM worked out at 79.3%.
For the compound `O=C(N[C@H]1CC[C@H](COc2coc(CN3Cc4ccc(OC5CC5)cc4C3)cc2=O)CC1)C1CC1` [Compound 34], the IC50 is 122 nM.
With `CS(=O)(=O)N1CC(OC(=O)N2CC(COc3coc(CN4Cc5ccc(C(F)(F)F)cc5C4)cc3=O)C2)C1` [Compound 60], the inhibition at 0.1 µM came to 57.7% and the inhibition at 1 µM was found to be 78.5%.
For `O=C(CC(F)(F)F)N[C@H]1CC[C@H](/C=C/c2coc(CN3Cc4ccc(C(F)(F)F)cc4C3)cc2=O)CC1` [Compound 102] the same measures were 79% and 82%.
For `O=c1cc(CN2Cc3ccc(C(F)(F)F)cc3C2)occ1OC[C@H]1CC[C@H](NS(=O)(=O)c2ccsc2)CC1` [Compound 68] the same measures were 81% and 86%.
`O=C(N[C@H]1CC[C@H](CCc2coc(CN3Cc4ccc(C(F)(F)F)cc4C3)cc2=O)CC1)[C@H]1CC1(F)F` [Compound 113]: the inhibition at 0.1 µM is 76% and the inhibition at 1 µM amounted to 77%.
For `CC(F)(F)C(=O)N[C@H]1CC[C@H](/C=C/c2coc(CN3Cc4ccc(C(F)(F)F)cc4C3)cc2=O)CC1` [Compound 108] the same measures were 75% and 84%.
For `C#Cc1ccc2c(c1)CN(Cc1cc(=O)c(OCC3CCN(C(=O)OC4COC4)CC3)co1)C2` [Compound 6] the same measures were 79.5% and 90.8%.
Regarding `Cc1nc(C(=O)N[C@H]2CC[C@H](COc3coc(CN4Cc5ccc(OC6CC6)cc5C4)cc3=O)CC2)cs1` [Compound 47], the inhibition at 0.1 µM is 72.2% and the inhibition at 1 µM is 69.3%.
For the compound `C#CCCS(=O)(=O)N1CCC(COc2coc(CN3Cc4ccc(C(F)(F)F)cc4C3)cc2=O)CC1` [Compound 12], the inhibition at 0.1 µM stood at 85.6% and the inhibition at 1 µM stood at 83.4%.
For `Cn1ncc(C(=O)N[C@H]2CC[C@H](/C=C/c3coc(CN4Cc5ccc(C(F)(F)F)cc5C4)cc3=O)CC2)c1F` [Compound 106] the same measures were 69% and 93%.
For `CS(=O)(=O)N1CCC2(CC1)CC2C(=O)N1CCC(COc2coc(CN3Cc4ccc(C(F)(F)F)cc4C3)cc2=O)CC1` (single isomer, unassigned) [Compound 69] the same measures were 62% and 76%.
For `O=C(N[C@H]1CC[C@H](CCc2coc(CN3Cc4ccc(C(F)(F)F)cc4C3)cc2=O)CC1)[C@@H]1CC1(F)F` [Compound 112] the same measures were 74% and 78%.
As for `O=C(N[C@H]1CC[C@H](COc2coc(CN3Cc4ccc(C(F)(F)F)cc4C3)cc2=O)CC1)[C@@H]1CC1(F)F` [Compound 66], the inhibition at 0.1 µM turned out to be 78% and the inhibition at 1 µM came out at 82%.
